# Assay results: PubChem BioAssay (NCI)
#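 Exposure lasted 48 hours, with cells grown in 96-well plates and compounds tested at five concentrations. Abbreviation: GI50, concentration required for 50% inhibition of growth. TGI marks complete inhibition of growth.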
# Key:
# Experiment in all cases: DTP human tumour cell line panel, 48 h
# KM12 colon = test system: KM12 colon
# OVCAR-8 ovarian = test system: OVCAR-8 ovarian
# COLO 205 colon = test system: COLO 205 colon
# SW-620 colon = test system: SW-620 colon
# OVCAR-3 ovarian = test system: OVCAR-3 ovarian
# PC-3 prostate = test system: PC-3 prostate
# TK-10 renal = test system: TK-10 renal
# OVCAR-4 ovarian = test system: OVCAR-4 ovarian
# SK-MEL-28 melanoma = test system: SK-MEL-28 melanoma
# T-47D breast = test system: T-47D breast
# HT29 colon = test system: HT29 colon
# SNB-75 CNS = test system: SNB-75 CNS
# 786-0 renal = test system: 786-0 renal
# EKVX NSCLC = test system: EKVX NSCLC
# MALME-3M melanoma = test system: MALME-3M melanoma
# M14 melanoma = test system: M14 melanoma
# HCT-15 colon = test system: HCT-15 colon
# DU-145 prostate = test system: DU-145 prostate
# SNB-19 CNS = test system: SNB-19 CNS
# SK-OV-3 ovarian = test system: SK-OV-3 ovarian
# NCI-H23 lung = test system: NCI-H23 lung
# IGROV1 ovarian = test system: IGROV1 ovarian
# HCT-116 colon = test system: HCT-116 colon
# HL-60(TB) leukemia = test system: HL-60(TB) leukemia
# CAKI-1 renal = test system: CAKI-1 renal
# SF-539 CNS = test system: SF-539 CNS
# NCI/ADR-RES ovarian = test system: NCI/ADR-RES ovarian
# K-562 leukemia = test system: K-562 leukemia
# OVCAR-5 ovarian = test system: OVCAR-5 ovarian
# CCRF-CEM leukemia = test system: CCRF-CEM leukemia
# RXF 393 renal = test system: RXF 393 renal
# SF-268 CNS = test system: SF-268 CNS
# HCC-2998 colon = test system: HCC-2998 colon
# MOLT-4 leukemia = test system: MOLT-4 leukemia
# UACC-62 melanoma = test system: UACC-62 melanoma
# MDA-MB-231 breast = test system: MDA-MB-231 breast
# BT-549 breast = test system: BT-549 breast
# RPMI-8226 leukemia = test system: RPMI-8226 leukemia
# NCI-H226 lung = test system: NCI-H226 lung
# HS 578T breast = test system: HS 578T breast
# A498 renal = test system: A498 renal
# ACHN renal = test system: ACHN renal
# HOP-92 NSCLC = test system: HOP-92 NSCLC
# U251 CNS = test system: U251 CNS
# SK-MEL-5 melanoma = test system: SK-MEL-5 melanoma
# SK-MEL-2 melanoma = test system: SK-MEL-2 melanoma
# LOX IMVI melanoma = test system: LOX IMVI melanoma
# SN12C renal = test system: SN12C renal
# MDA-MB-435 = test system: MDA-MB-435
# UO-31 renal = test system: UO-31 renal
# HOP-62 NSCLC = test system: HOP-62 NSCLC
# A549 NSCLC = test system: A549 NSCLC
# UACC-257 melanoma = test system: UACC-257 melanoma
# SF-295 CNS = test system: SF-295 CNS
compound,measurement,setting,value
COc1ccc(/C=N/NC2=NC3C(S2)N(C)C(=O)N3C)cc1 (configuration not stated),GI50,KM12 colon,4.73 µM
same,TGI,KM12 colon,> 100 µM
same,GI50,OVCAR-8 ovarian,7.65 µM
same,TGI,OVCAR-8 ovarian,> 100 µM
same,GI50,COLO 205 colon,4.25 µM
same,TGI,COLO 205 colon,25 µM
same,GI50,SW-620 colon,3.32 µM
same,TGI,SW-620 colon,> 100 µM
same,GI50,OVCAR-3 ovarian,2.82 µM
same,TGI,OVCAR-3 ovarian,7.95 µM
same,GI50,PC-3 prostate,4.76 µM
same,TGI,PC-3 prostate,> 100 µM
same,TGI,TK-10 renal,40.9 µM
same,GI50,OVCAR-4 ovarian,7.95 µM
same,TGI,OVCAR-4 ovarian,> 100 µM
same,GI50,SK-MEL-28 melanoma,7.7 µM
same,TGI,SK-MEL-28 melanoma,> 100 µM
same,GI50,T-47D breast,4.5 µM
same,TGI,T-47D breast,> 100 µM
same,GI50,HT29 colon,2.15 µM
same,TGI,HT29 colon,5.1 µM
same,GI50,SNB-75 CNS,1.75 µM
same,TGI,SNB-75 CNS,6.26 µM
same,GI50,786-0 renal,4.89 µM
same,TGI,786-0 renal,> 100 µM
same,GI50,EKVX NSCLC,8.03 µM
same,TGI,EKVX NSCLC,> 100 µM
same,GI50,MALME-3M melanoma,3.7 µM
same,TGI,MALME-3M melanoma,> 100 µM
same,GI50,M14 melanoma,4 µM
same,TGI,M14 melanoma,64.1 µM
same,GI50,HCT-15 colon,3.48 µM
same,TGI,HCT-15 colon,> 100 µM
same,GI50,DU-145 prostate,9.89 µM
same,TGI,DU-145 prostate,> 100 µM
same,GI50,SNB-19 CNS,4.12 µM
same,TGI,SNB-19 CNS,> 100 µM
same,GI50,SK-OV-3 ovarian,4.27 µM
same,TGI,SK-OV-3 ovarian,> 100 µM
same,GI50,NCI-H23 lung,5.05 µM
same,TGI,NCI-H23 lung,> 100 µM
same,GI50,IGROV1 ovarian,4.72 µM
same,TGI,IGROV1 ovarian,> 100 µM
same,GI50,HCT-116 colon,4.67 µM
same,TGI,HCT-116 colon,> 100 µM
same,GI50,HL-60(TB) leukemia,2.51 µM
same,TGI,HL-60(TB) leukemia,5.55 µM
same,GI50,CAKI-1 renal,3.76 µM
same,TGI,CAKI-1 renal,> 100 µM
same,GI50,SF-539 CNS,3.03 µM
same,TGI,SF-539 CNS,12.3 µM
same,GI50,NCI/ADR-RES ovarian,3.8 µM
same,TGI,NCI/ADR-RES ovarian,27.4 µM
same,GI50,K-562 leukemia,3.12 µM
same,TGI,K-562 leukemia,> 100 µM
same,GI50,OVCAR-5 ovarian,7.96 µM
same,TGI,OVCAR-5 ovarian,> 100 µM
same,GI50,CCRF-CEM leukemia,3.61 µM
same,TGI,CCRF-CEM leukemia,> 100 µM
same,GI50,RXF 393 renal,1.99 µM
same,TGI,RXF 393 renal,5.05 µM
same,GI50,SF-268 CNS,5.37 µM
same,TGI,SF-268 CNS,> 100 µM
same,GI50,HCC-2998 colon,6.91 µM
same,TGI,HCC-2998 colon,36 µM
same,GI50,MOLT-4 leukemia,3.58 µM
same,TGI,MOLT-4 leukemia,> 100 µM
same,GI50,UACC-62 melanoma,2.97 µM
same,TGI,UACC-62 melanoma,37.1 µM
same,GI50,MDA-MB-231 breast,6.09 µM
same,TGI,MDA-MB-231 breast,45.2 µM
same,GI50,BT-549 breast,2.71 µM
same,TGI,BT-549 breast,14.2 µM
same,GI50,RPMI-8226 leukemia,5 µM
same,TGI,RPMI-8226 leukemia,> 100 µM
same,GI50,NCI-H226 lung,4.58 µM
same,TGI,NCI-H226 lung,> 100 µM
same,GI50,HS 578T breast,2.51 µM
same,TGI,HS 578T breast,7.53 µM
same,GI50,A498 renal,5.73 µM
same,TGI,A498 renal,87 µM
same,GI50,ACHN renal,5.27 µM
same,TGI,ACHN renal,> 100 µM
same,GI50,HOP-92 NSCLC,9.44 µM
same,TGI,HOP-92 NSCLC,> 100 µM
same,GI50,U251 CNS,3.78 µM
same,TGI,U251 CNS,> 100 µM
same,GI50,SK-MEL-5 melanoma,2.95 µM
same,TGI,SK-MEL-5 melanoma,10.6 µM
same,GI50,SK-MEL-2 melanoma,1.04 µM
same,TGI,SK-MEL-2 melanoma,3.52 µM
same,GI50,LOX IMVI melanoma,3.79 µM
same,TGI,LOX IMVI melanoma,> 100 µM
same,GI50,SN12C renal,4.17 µM
same,TGI,SN12C renal,> 100 µM
same,GI50,MDA-MB-435,1.6 µM
same,TGI,MDA-MB-435,3.92 µM
same,GI50,UO-31 renal,3.16 µM
same,TGI,UO-31 renal,> 100 µM
same,GI50,HOP-62 NSCLC,4.12 µM
same,TGI,HOP-62 NSCLC,> 100 µM
same,GI50,A549 NSCLC,5.83 µM
same,TGI,A549 NSCLC,> 100 µM
same,GI50,UACC-257 melanoma,5.01 µM
same,TGI,UACC-257 melanoma,> 100 µM
same,GI50,SF-295 CNS,2.97 µM
same,TGI,SF-295 CNS,12.7 µM
